From ChEMBL document CHEMBL3272135, “Quantitative relationships between steroid structure and binding to putative progesterone receptors” (J Med Chem, 1977)

What was measured:
[1] = biological target: T1, Progesterone receptor (Ovis aries) (UniProt Q28590); assay: Relative binding affinity to sheep progesterone receptor
T1 sequence (whole entry): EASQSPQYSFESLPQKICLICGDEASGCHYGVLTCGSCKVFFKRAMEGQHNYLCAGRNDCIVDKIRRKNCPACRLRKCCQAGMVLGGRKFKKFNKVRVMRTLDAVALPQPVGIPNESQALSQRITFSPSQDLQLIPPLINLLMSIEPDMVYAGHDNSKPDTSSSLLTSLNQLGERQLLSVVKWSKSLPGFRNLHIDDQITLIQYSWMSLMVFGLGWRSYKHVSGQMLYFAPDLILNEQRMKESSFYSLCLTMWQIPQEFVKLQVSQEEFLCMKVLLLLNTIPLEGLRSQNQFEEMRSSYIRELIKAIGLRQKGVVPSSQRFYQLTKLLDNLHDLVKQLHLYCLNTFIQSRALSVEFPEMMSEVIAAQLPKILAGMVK

[2] = biological target: T2, Progesterone receptor (Oryctolagus cuniculus) (UniProt P06186); assay: Relative binding affinity to rabbit progesterone receptor
T2 sequence (whole entry): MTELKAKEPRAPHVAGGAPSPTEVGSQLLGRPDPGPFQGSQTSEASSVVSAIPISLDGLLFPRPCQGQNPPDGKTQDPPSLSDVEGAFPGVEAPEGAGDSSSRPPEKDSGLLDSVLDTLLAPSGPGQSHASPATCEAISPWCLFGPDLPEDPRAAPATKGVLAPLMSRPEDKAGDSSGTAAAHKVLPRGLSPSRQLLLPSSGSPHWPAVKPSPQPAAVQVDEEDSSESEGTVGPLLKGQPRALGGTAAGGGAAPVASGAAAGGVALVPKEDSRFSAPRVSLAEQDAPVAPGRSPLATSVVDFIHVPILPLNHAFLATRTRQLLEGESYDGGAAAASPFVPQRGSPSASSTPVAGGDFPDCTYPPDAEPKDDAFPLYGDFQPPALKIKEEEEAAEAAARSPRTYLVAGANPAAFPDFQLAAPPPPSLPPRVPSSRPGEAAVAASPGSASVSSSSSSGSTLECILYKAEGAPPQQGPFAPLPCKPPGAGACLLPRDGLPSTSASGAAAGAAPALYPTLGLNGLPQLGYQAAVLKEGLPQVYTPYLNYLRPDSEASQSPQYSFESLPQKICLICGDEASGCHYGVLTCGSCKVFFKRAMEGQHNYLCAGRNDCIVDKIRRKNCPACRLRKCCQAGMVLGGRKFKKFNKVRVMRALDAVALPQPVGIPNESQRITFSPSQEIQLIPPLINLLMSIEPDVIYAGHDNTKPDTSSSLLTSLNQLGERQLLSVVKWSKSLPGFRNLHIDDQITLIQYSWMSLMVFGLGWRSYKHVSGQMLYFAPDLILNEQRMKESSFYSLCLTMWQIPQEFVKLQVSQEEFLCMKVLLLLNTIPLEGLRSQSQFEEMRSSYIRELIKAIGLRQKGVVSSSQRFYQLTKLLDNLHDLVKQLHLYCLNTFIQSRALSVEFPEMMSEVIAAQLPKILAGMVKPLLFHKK

Cavia porcellus = species on record: Cavia porcellus; assay: Relative binding affinity to guinea pig progesterone receptor
[3] = biological target: T3, Progesterone receptor (Homo sapiens) (UniProt P06401)
T3 sequence (whole entry): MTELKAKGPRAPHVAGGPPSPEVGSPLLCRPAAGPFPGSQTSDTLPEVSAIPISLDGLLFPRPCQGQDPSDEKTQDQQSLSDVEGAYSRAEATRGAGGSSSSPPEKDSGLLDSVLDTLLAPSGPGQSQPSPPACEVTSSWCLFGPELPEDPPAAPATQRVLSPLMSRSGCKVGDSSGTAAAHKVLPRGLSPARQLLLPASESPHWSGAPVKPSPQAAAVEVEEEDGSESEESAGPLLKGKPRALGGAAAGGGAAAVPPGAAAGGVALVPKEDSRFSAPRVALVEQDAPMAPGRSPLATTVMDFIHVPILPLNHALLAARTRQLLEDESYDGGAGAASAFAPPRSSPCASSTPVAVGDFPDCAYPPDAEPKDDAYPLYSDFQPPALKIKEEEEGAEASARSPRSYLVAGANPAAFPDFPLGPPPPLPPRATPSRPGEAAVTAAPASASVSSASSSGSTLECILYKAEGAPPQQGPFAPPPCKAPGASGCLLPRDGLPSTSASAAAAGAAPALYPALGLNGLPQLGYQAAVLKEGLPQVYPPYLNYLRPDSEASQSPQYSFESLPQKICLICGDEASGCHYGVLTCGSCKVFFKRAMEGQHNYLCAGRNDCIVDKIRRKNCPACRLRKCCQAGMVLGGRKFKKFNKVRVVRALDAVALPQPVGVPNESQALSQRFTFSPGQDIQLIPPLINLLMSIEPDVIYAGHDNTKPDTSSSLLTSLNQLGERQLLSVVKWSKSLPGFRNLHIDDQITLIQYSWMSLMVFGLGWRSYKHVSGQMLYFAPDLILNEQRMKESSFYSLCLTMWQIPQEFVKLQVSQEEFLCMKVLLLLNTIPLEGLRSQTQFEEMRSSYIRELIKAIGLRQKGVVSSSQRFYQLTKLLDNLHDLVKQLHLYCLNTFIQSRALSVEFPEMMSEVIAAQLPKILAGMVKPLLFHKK

SMILES | log(RBA) [1] | log(RBA) [2] | log(RBA) (Cavia porcellus) | log(RBA) [3]
CC(=O)[C@@]12O[C@@H]1C[C@H]1[C@@H]3CCC4=CC(=O)CC[C@]4(C)[C@H]3CC[C@@]12C | -0.52 | -0.097 | -0.046 | 0
C[C@]12C[C@H](O)[C@H]3[C@@H](CCC4=CC(=O)CC[C@@]43C)[C@@H]1CC[C@@H]2C(=O)CO | 0 | 0.02 | 0.447 | 0.3
CC(=O)O[C@]1(C(C)=O)CC[C@H]2[C@@H]3CCC4=C(O)C(=O)CC[C@]4(C)[C@H]3CC[C@@]21C | 1.2 | 1.77 | -0.4 | 1.62
CC(=O)[C@H]1CC[C@H]2[C@@H]3CC[C@@H]4CC(=O)CC[C@]4(C)[C@H]3CC[C@]12C | 0.6 | 1.08 | 0.7 | 1.08
CC[C@@H]1C[C@H]2[C@@H]3CCC4=CC(=O)CC[C@]4(C)[C@H]3CC[C@]2(C)[C@H]1C(C)=O | 1.87 | 1.98 | 1.08 | 1.98
C[C@]12CC[C@H]3[C@@H](CCC4=CC(=O)CC[C@@]43C)[C@@H]1CC[C@@H]2C(=O)CO | 1.4 | 1.4 | 1.15 | 1.23
CC(=O)O[C@]1(C(C)=O)CC[C@H]2[C@@H]3C[C@H](C)C4=CC(=O)CC[C@]4(C)[C@H]3CC[C@@]21C | 1.86 | 2 | 1.11 | 2.29
CC(=O)[C@H]1CC[C@H]2[C@@H]3CCC4=CC(=O)CC[C@]4(C)[C@H]3CC(=O)[C@]12C | -1 | -0.221 | -0.52 | -0.69
C#C[C@]1(O)CC[C@H]2[C@@H]3CC[C@@H]4C[C@H](O)CC[C@@H]4[C@H]3CC[C@@]21C | -2 | -1 | -2 | -1
C#C[C@]1(O)CC[C@H]2[C@@H]3CCC4=CC(=O)CC[C@@H]4[C@H]3CC[C@@]21CC | 2 | 2.62 | 1.43 | 2.22
CC[C@@H]1C[C@H]2[C@@H]3CCC4=CC(=O)CC[C@@H]4[C@H]3CC[C@]2(C)[C@H]1C(=O)CO | 1.98 | 2.44 | 1.4 | 2.16
CC(=O)[C@H]1CC[C@H]2[C@@H]3CCC4=CC(=O)C=C[C@]4(C)[C@H]3CC[C@]12C | 1.2 | 1.3 | 1.64 | 1.48
CC(=O)[C@@]12[C@@H](C[C@H]3[C@@H]4CCC5=CC(=O)CC[C@]5(C)[C@H]4CC[C@@]31C)C2(C)C | 1.9 | 2.38 | 1 | 2.11
C#C[C@]1(O)CC[C@H]2[C@@H]3CCC4=CC(=O)CC[C@@H]4[C@H]3[C@@H](Cl)C[C@@]21C | 2.06 | 2.32 | 1.48 | 2.11
C[C@@H](O)[C@H]1CC[C@H]2[C@@H]3CCC4=CC(=O)CC[C@]4(C)[C@H]3CC[C@]12C | 0 | 1.01 | 0 | 0.3
CC(=O)[C@@]1(C)CC[C@H]2[C@@H]3CCC4=CC(=O)CC[C@@H]4[C@H]3CC[C@@]21C |  | 2.7 |  | 
C[C@H](O)[C@H]1CC[C@H]2[C@@H]3CCC4=CC(=O)CC[C@]4(C)[C@H]3CC[C@]12C | 0.7 | 0.778 | 0.6 | 1
C[C@]12CCC(=O)C[C@@H]1CC[C@@H]1[C@@H]2CC[C@]2(C)[C@@H](O)CC[C@@H]12 | 0 |  |  | 0.3
C#C[C@]1(O)CC[C@H]2[C@@H]3CCC4=C(CCC(=O)C4)[C@H]3CC[C@@]21C | 0.845 | 1.56 | 3 | 1.34

SMILES | log(RBA) [1] | log(RBA) [2] | log(RBA) (Cavia porcellus) | log(RBA) [3]
C[C@]1(O)CC[C@H]2[C@@H]3CCC4=CCCC[C@@H]4[C@H]3CC[C@@]21C | 0.778 | 1.3 | 0.3 | 0.78
CC(=O)[C@H]1CC[C@H]2[C@@H]3CC=C4C[C@@H](O)CC[C@]4(C)[C@H]3CC[C@]12C |  | -0.301 | -0.52 | -0.69
CC(=O)O[C@]1(C(C)=O)CC[C@H]2[C@@H]3C=C(Cl)C4=CC(=O)CC[C@]4(C)[C@H]3CC[C@@]21C | 1.78 | 2.16 | -0.097 | 2.08
CC(=O)[C@H]1CC[C@H]2[C@@H]3CCC4=CC(=O)CC[C@]4(C)[C@H]3CC[C@]12C | 2 | 2 | 2 | 2
CC(=O)[C@@]1(O)CC[C@H]2[C@@H]3CCC4=CC(=O)CC[C@]4(C)[C@H]3CC[C@@]21C | -0.3 | -0.097 | -0.52 | -0.15
CC(=O)[C@H]1CC[C@H]2[C@@H]3CCC4=CC(=O)CC[C@]4(C)[C@H]3C(=O)C[C@]12C | -0.097 | 0.301 | 0 | 0
CCC(=O)[C@@]1(C)CC[C@H]2[C@@H]3CCC4=CC(=O)CCC4=C3CC[C@@]21C |  | 2.48 |  | 
C#C[C@]1(O)CC[C@H]2[C@@H]3CC[C@H]4CC(=O)CC[C@@H]4[C@H]3CC[C@@]21C | 1 | 1.23 | 0.3 | 1.23
C[C@]12CC[C@H]3[C@@H](CCC4=CC(=O)CC[C@@H]43)[C@@H]1CC[C@@H]2O | 1 | 1 | 1.6 | 1.14
CC(=O)[C@H]1CC[C@H]2[C@@H]3CCC4=CC(=O)CCC4=C3CC[C@]12C |  | 2 |  | 
C[C@]12CC[C@H]3[C@@H](CCC4=CC(=O)CC[C@@]43C)[C@@H]1CC[C@@H]2O | 0 | -0.22 | 0 | 
CC(=O)[C@@]1(C)CC[C@H]2[C@@H]3CCC4=CC(=O)CCC4=C3C=C[C@@]21C |  | 1.74 |  | 
C#C[C@]1(O)CC[C@H]2[C@@H]3CCC4=CC(=O)CCC4=C3C=C[C@@]21CC |  | 1.3 |  | 
C#C[C@]1(O)CC[C@H]2[C@@H]3CCC4=CC(=O)CC[C@@H]4[C@H]3CC[C@@]21CCC |  | 1.54 |  | 
CCCCCC(=O)O[C@]1(C(C)=O)CC[C@H]2[C@@H]3CCC4=CC(=O)CC[C@]4(C)[C@H]3CC[C@@]21C |  | 1.88 |  | 1.88
CC(=O)[C@H]1CC[C@H]2[C@@H]3CCC4=CC(=O)CCC4=C3C=C[C@]12C |  | 1.3 |  | 
C#C[C@]1(O)CC[C@H]2[C@@H]3CCC4=CC(=O)CCC4=C3C=C[C@@]21CCC |  | 0.7 |  | 
CC(=O)[C@@]1(C)CC[C@H]2[C@@H]3CCC4=CC(=O)CCC4=C3CC[C@@]21C |  | 2.3 |  | 
C#C[C@]1(O)CC[C@H]2[C@@H]3CCC4=CC(=O)CCC4=C3C=C[C@@]21C |  | 1.3 |  | 
